This note sets out measurements from PubChem BioAssay (NCI).

Some test systems named below: A498 renal; COLO 205 colon; HCT-15 colon; NCI/ADR-RES ovarian; CAKI-1 renal; OVCAR-5 ovarian; SK-MEL-2 melanoma; 786-0 renal; MCF7 breast; HOP-92 NSCLC.
Assay in all cases: NCI-60 cell line screen, 48 h

Molecules are shown by their SMILES.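 Five compound concentrations were applied to cells in 96-well plates for 48 hours; endpoints were derived by simple linear interpolation of the resulting dose-response curve. GI50: concentration for 50% inhibition of growth. The concentration for full growth arrest is given as TGI.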

In the case of `CCN1C(=O)N(CC)C2C1NN=c1s/c(=C3\C(=O)N(CC(C)C)c4ccccc43)c(=O)n12` (stereo unspecified), the GI50 was 0.197 µM in the experiment with A498 renal; 401 nM in the experiment on COLO 205 colon; 0.438 µM in the experiment with HCT-15 colon; 0.479 µM in the experiment on NCI/ADR-RES ovarian; 0.522 µM with CAKI-1 renal; 2.27 µM with OVCAR-5 ovarian. The GI50 in the experiment on SK-MEL-2 melanoma was 2.98 µM; in the experiment with 786-0 renal it was 1.02 µM; in the experiment with MCF7 breast it was 0.454 µM; in the experiment on HOP-92 NSCLC, 4.04 µM. Also, the TGI with A498 renal was 0.875 µM; with COLO 205 colon it was 2.32 µM; in the experiment on HCT-15 colon, more than 100 µM; in the experiment with NCI/ADR-RES ovarian it was more than 30.4 µM; in the experiment with CAKI-1 renal, more than 100 µM; in the experiment with OVCAR-5 ovarian, more than 100 µM. Further, the TGI in the experiment with SK-MEL-2 melanoma is 27.8 µM; with 786-0 renal, 26.7 µM; with MCF7 breast it was more than 100 µM; with HOP-92 NSCLC it was more than 64.1 µM.
In the case of `O=C(c1cc(F)c(Cl)cc1Cl)N1N=C(c2ccccc2)CC1(O)c1ccccc1` (stereo unspecified), the GI50 was 11.8 µM in the experiment with A498 renal; 17000 nM in the experiment with COLO 205 colon; 13.8 µM in the experiment with HCT-15 colon; 19 µM in the experiment on NCI/ADR-RES ovarian; 31.7 µM in the experiment on CAKI-1 renal; 23.3 µM in the experiment on OVCAR-5 ovarian. Besides, the GI50 in the experiment on SK-MEL-2 melanoma was 18.1 µM; in the experiment on 786-0 renal it was 15.8 µM; in the experiment with MCF7 breast, 18.3 µM; with HOP-92 NSCLC, 13 µM. Also, the TGI in the experiment on A498 renal was 24 µM; in the experiment on COLO 205 colon, 31.4 µM; in the experiment on HCT-15 colon, 28.3 µM; in the experiment on NCI/ADR-RES ovarian, 41 µM; in the experiment on CAKI-1 renal, more than 100 µM; with OVCAR-5 ovarian, 70.9 µM. The TGI in the experiment with SK-MEL-2 melanoma came out at 38 µM; in the experiment on 786-0 renal, 40.9 µM; in the experiment on MCF7 breast, 38.2 µM; in the experiment with HOP-92 NSCLC, 29.8 µM.
On to `CCOC(=O)Cc1csc(/N=C2\NC(=O)/C(=C3\C(=O)N(C)c4ccccc43)S2)n1`, for which the GI50 in the experiment with A498 renal was 46.8 µM; in the experiment on COLO 205 colon it was 48700 nM; with HCT-15 colon, 39.7 µM; in the experiment on NCI/ADR-RES ovarian it was 49.6 µM; with CAKI-1 renal, 23.5 µM; with OVCAR-5 ovarian it was more than 100 µM. For the same compound, the GI50 in the experiment on SK-MEL-2 melanoma is 24.2 µM; in the experiment on 786-0 renal, 28 µM; in the experiment on MCF7 breast it was 46.8 µM; in the experiment on HOP-92 NSCLC, 52.3 µM. Besides, the TGI with A498 renal was more than 100 µM; with COLO 205 colon, more than 100 µM; with HCT-15 colon, more than 100 µM; in the experiment on NCI/ADR-RES ovarian it was more than 100 µM; in the experiment with CAKI-1 renal, 67.9 µM; in the experiment with OVCAR-5 ovarian it was more than 100 µM. The TGI in the experiment with SK-MEL-2 melanoma is more than 100 µM; in the experiment with 786-0 renal it was 72.5 µM; with MCF7 breast, more than 100 µM; with HOP-92 NSCLC, more than 100 µM.
On to `CCCc1ccc(S(=O)(=O)N[C@H]2CC[C@H]3[C@@H]4CCc5cc(O)ccc5[C@H]4CC[C@]23C)cc1`, for which the GI50 in the experiment with A498 renal was 1.78 µM; in the experiment on COLO 205 colon, 1840 nM; in the experiment on HCT-15 colon, 2.26 µM; with NCI/ADR-RES ovarian, 2.75 µM; with CAKI-1 renal, 3.45 µM; in the experiment with OVCAR-5 ovarian, 2.06 µM. For the same compound, the GI50 with SK-MEL-2 melanoma was 2.72 µM; in the experiment with 786-0 renal, 3.02 µM; in the experiment with MCF7 breast, 2.66 µM; in the experiment with HOP-92 NSCLC, 1.91 µM. In addition, the TGI with A498 renal was 5.45 µM; in the experiment with COLO 205 colon, 3.28 µM; with HCT-15 colon, 6.45 µM; in the experiment on NCI/ADR-RES ovarian, 10.6 µM; in the experiment on CAKI-1 renal, 11.9 µM; in the experiment with OVCAR-5 ovarian, 4.44 µM. Also, the TGI is 7.12 µM in the experiment with SK-MEL-2 melanoma, 9.16 µM with 786-0 renal, 7.29 µM with MCF7 breast and 5.65 µM in the experiment with HOP-92 NSCLC.
For `[N-]=[N+]=NC1=NNC2(C(=O)N1)c1ccccc1-c1ccccc12`, the TGI in the experiment on A498 renal, in the experiment on COLO 205 colon, with HCT-15 colon, in the experiment on NCI/ADR-RES ovarian, in the experiment on CAKI-1 renal and in the experiment with OVCAR-5 ovarian was more than 100 µM in each case. In addition, the TGI in the experiment with SK-MEL-2 melanoma, with 786-0 renal, with MCF7 breast and with HOP-92 NSCLC was more than 100 µM in each case.
As for `c1ccc2[nH]c(SSc3nc4ncncc4[nH]3)nc2c1`, the GI50 in the experiment with A498 renal is 8.11 µM; in the experiment with COLO 205 colon it was 2590 nM; in the experiment with HCT-15 colon, 3.25 µM; with NCI/ADR-RES ovarian, 1.74 µM; with CAKI-1 renal it was 0.212 µM; with OVCAR-5 ovarian it was 13 µM. The GI50 in the experiment on SK-MEL-2 melanoma is 2.72 µM; with 786-0 renal it was 0.463 µM; in the experiment on MCF7 breast, 0.295 µM; in the experiment with HOP-92 NSCLC, 0.375 µM. Moreover, the TGI with A498 renal was more than 91.1 µM; with COLO 205 colon, 10.2 µM; in the experiment on HCT-15 colon, more than 100 µM; in the experiment with NCI/ADR-RES ovarian it was more than 100 µM; in the experiment with CAKI-1 renal, 3.77 µM; with OVCAR-5 ovarian, more than 100 µM. Moreover, the values for the TGI in the experiment with SK-MEL-2 melanoma, in the experiment on 786-0 renal and with HOP-92 NSCLC were more than 100 µM, more than 100 µM and more than 90.8 µM, respectively.
On to `N#CC1=C(N)OC2=C(COc3ccc(F)cc32)C1c1ccc(Cl)cc1` (stereo unspecified), for which the GI50 in the experiment on A498 renal was 22.2 µM; in the experiment on HCT-15 colon it was 34.4 µM; in the experiment on NCI/ADR-RES ovarian, 19.1 µM; in the experiment with CAKI-1 renal, 30.1 µM; in the experiment on OVCAR-5 ovarian it was 41.6 µM; with SK-MEL-2 melanoma, 35.1 µM. Moreover, the GI50 in the experiment on 786-0 renal is 32.3 µM; in the experiment with MCF7 breast, 30.3 µM; in the experiment on HOP-92 NSCLC, 30.5 µM. Moreover, the TGI in the experiment on A498 renal was 67.7 µM; in the experiment on HCT-15 colon it was more than 100 µM; with NCI/ADR-RES ovarian, 48.8 µM; in the experiment on CAKI-1 renal it was more than 100 µM; in the experiment on OVCAR-5 ovarian, more than 100 µM; in the experiment with SK-MEL-2 melanoma it was more than 100 µM. Further, the TGI with 786-0 renal, with MCF7 breast and in the experiment with HOP-92 NSCLC was more than 100 µM throughout.
Take `COc1ccccc1C1=C2C(=O)N(C)C(c3ccccc3OC)=C2C(=O)N1C`: the TGI in the experiment on A498 renal, in the experiment with COLO 205 colon, in the experiment with HCT-15 colon, with NCI/ADR-RES ovarian, in the experiment on CAKI-1 renal and in the experiment on OVCAR-5 ovarian was more than 100 µM in each case. For the same compound, the TGI in the experiment on 786-0 renal was 85.5 µM; in the experiment with MCF7 breast, more than 100 µM; with HOP-92 NSCLC, more than 100 µM.
